This note sets out measurements from ChEMBL document CHEMBL3045624, “Quantitative structureactivity relationships for estimating the aryl hydrocarbon receptor binding affinities of resveratrol derivatives and the antioxidant activities of hydroxystilbenes” (Med Chem Res, 2010).

Experiment [1] deals with Radical scavenging activity. As to the kind of experiment: Antioxidant activity assessed as inhibition of DPPH free radical formation. In kind it is functional. Set-up: concentration or dose not given beside the values. As to conditions: dose or concentration not given here. (DPPH is a stable violet radical that fades when it is reduced.)
The nature of experiment [2]: Antioxidant activity assessed as inhibition rate constant for reaction with peroxyl radicals. It is filed as functional.
Experiment [3] in a line: Antioxidant activity in SDS micelles assessed as time required to inhibit AAPH-induced linoleic acid peroxidation. It is filed as functional.
Experiment [4] can be described thus: Antioxidant activity assessed as superoxide scavenging activity in riboflavin light-NBT system. In kind it is functional.
Experiment [5] in a line: Antioxidant activity in CTAB micelles assessed as inhibition rate constant for AAPH-induced linoleic acid peroxidation. In kind it is functional.
Experiment [6] is described as follows: Antioxidant activity in SDS micelles assessed as inhibition rate constant for AAPH-induced linoleic acid peroxidation. In kind it is functional.
A short description of experiment [7]: Antioxidant activity in CTAB micelles assessed as time required to inhibit AAPH-induced linoleic acid peroxidation. It is filed as functional.
The nature of experiment [8]: Antioxidant activity assessed as inhibition rate constant in AAPH-induced human LDL peroxidation. It is filed as functional.
The test system of experiment [9] is Liver microsome. As to the kind of experiment: Antioxidant activity in Rattus norvegicus Wistar (rat) liver microsomes assessed as inhibition of Fe2+/ascorbate-induced lipid peroxidation incubated for 10 min prior to Fe2+/ascorbate induction measured after 60 min by TBARS assay. It is filed as functional. In general terms: Microsomes from liver hold many membrane-bound enzymes, among them those of drug oxidation.

Experiment [10] is described as follows: Antioxidant activity assessed as time required to inhibit Cu2+-induced human LDL peroxidation. In kind it is functional.
Experiment [11] can be described thus: Antioxidant activity assessed as time required to induce lipid oxidation by Rancimat method. It is filed as functional.
Experiment [12] in a line: Antioxidant activity assessed as time required to inhibit AAPH-induced human LDL peroxidation. In kind it is functional.
Experiment [13] addresses T1, Aryl hydrocarbon receptor (Homo sapiens, UniProt P35869).
T1 sequence (P35869 whole entry): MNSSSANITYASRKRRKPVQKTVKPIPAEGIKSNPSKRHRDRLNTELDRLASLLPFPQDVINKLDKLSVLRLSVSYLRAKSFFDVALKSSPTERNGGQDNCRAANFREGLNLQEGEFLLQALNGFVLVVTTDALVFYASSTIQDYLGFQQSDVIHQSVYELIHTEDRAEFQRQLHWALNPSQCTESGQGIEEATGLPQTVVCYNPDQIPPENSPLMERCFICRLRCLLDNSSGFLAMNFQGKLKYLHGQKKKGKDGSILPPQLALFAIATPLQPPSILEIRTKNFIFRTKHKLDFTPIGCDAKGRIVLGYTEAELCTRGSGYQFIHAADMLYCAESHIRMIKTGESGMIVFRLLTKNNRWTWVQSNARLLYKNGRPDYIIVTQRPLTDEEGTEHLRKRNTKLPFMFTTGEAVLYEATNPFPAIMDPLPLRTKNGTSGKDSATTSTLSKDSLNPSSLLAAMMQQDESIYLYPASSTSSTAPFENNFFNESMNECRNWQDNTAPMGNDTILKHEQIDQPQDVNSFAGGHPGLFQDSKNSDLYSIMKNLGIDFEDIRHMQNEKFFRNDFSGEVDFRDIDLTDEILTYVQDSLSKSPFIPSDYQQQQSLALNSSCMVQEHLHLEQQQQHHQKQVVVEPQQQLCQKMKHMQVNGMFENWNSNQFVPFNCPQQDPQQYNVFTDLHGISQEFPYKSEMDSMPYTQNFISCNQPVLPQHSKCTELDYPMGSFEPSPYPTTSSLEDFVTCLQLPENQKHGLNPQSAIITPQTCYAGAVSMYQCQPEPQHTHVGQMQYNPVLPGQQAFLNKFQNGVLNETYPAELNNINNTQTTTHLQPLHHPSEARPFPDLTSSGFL
The experiment can be described thus: Binding affinity to aryl hydrocarbon receptor (unknown origin). The following applies: read-out: Ki(app).

Experiment [14] can be described thus: Antioxidant activity assessed as decrease in initial quantity of DPPH measured up to 6 hr by spectrophotometric analysis. In kind it is functional.

pEC50, pKi: −log10 of the molar value. Converted amounts (≈) assume the structure as drawn.

Turning to `Oc1ccc(/C=C/c2cc(O)cc(O)c2)cc1` [RESVERATROL], the inhibition (as a rule, the drop in the measured response relative to a control, in per cent) in [1] stood at 55.1%. Moreover, the INH in experiment [2] amounted to 14 ×10⁴ L/mol/s; in [5] it was 0.7 ×10⁴ L/mol/s; in experiment [6] it was 1.3 ×10⁴ L/mol/s; in experiment [8], 4.4 ×10⁵ L/mol/s. Further, the TIME in [3] stood at 3.1 ×10³ s; in experiment [7] it was 2.7 ×10³ s; in experiment [10] it was 0.967 h; in [11] it was 12.3 h; in [12], 0.397 h. In addition, the IC50 (commonly the concentration that inhibits the measured activity by half) in [4] is 106 µg/mL (≈ 464 µM). Further, in [9], the negative-log EC50 (pEC50) – broadly, −log10 of the EC50, conventionally taken in molar units – is 3.87.

As for `COc1cc(/C=C/c2cc(C(C)(C)C)c(O)c(C(C)(C)C)c2)cc(OC)c1`, in [2], the INH stood at 6.8 ×10⁴ L/mol/s.

For the compound `O=C(/C=C/c1cc(O)c(O)c(O)c1)Oc1cc(O)cc(/C=C/c2ccc(O)cc2)c1`, the IC50 in experiment [4] came to 10 µg/mL (≈ 24.6 µM).

With `Oc1ccc(/C=C/c2ccccc2)c(O)c1`, the INH in experiment [8] was determined as 6.2 ×10⁵ L/mol/s. Besides, the TIME in [10] turned out to be 0.883 h; in [12], 0.292 h.

As for `COc1cc(/C=C/c2ccc(O)c(OC)c2)ccc1O`, the INH in experiment [8] worked out at 4.1 ×10⁵ L/mol/s. For the same compound, the results for the TIME in experiment [10] and in experiment [12] were 1.47 h and 0.85 h, respectively.

As for `Oc1ccc(/C=C/c2ccc(O)cc2O)cc1`, in experiment [8], the INH came to 3.3 ×10⁵ L/mol/s. In addition, the TIME in experiment [10] is 0.717 h; in experiment [12] it was 0.458 h.

As to `Oc1cc(O)cc(/C=C/c2ccccc2)c1`, the inhibition in [1] was 29.8%. In addition, the TIME in experiment [3] is 1.5 ×10³ s; in experiment [7], 2.4 ×10³ s; in experiment [10] it was 0.717 h; in experiment [11] it was 2.3 h; in experiment [12] it was 0.362 h. For the same compound, the INH in experiment [5] is 0.5 ×10⁴ L/mol/s; in experiment [6], 1.7 ×10⁴ L/mol/s; in experiment [8] it was 3.3 ×10⁵ L/mol/s.

For `COc1ccc(/C=C\c2cc(Cl)cc(Cl)c2)cc1`, the pKi (commonly the negative decadic logarithm of the Ki, by convention in mol/L) in [13] was 7.92.

`Oc1ccc(/C=C/c2cc(O)c(O)c(O)c2)cc1`: in [1], the inhibition was found to be 92.9%. Moreover, the TIME in experiment [11] turned out to be 43 h.

For the compound `COc1cc(/C=C/c2ccc(O)c(OC)c2)cc(OC)c1`, the INH in experiment [2] came to 10 ×10⁴ L/mol/s.

On to `COc1ccc(/C=C\c2cc(OC)cc(OC)c2)cc1` [8Z-3,4',5-TRIMETHOXYSTILBENE], for which the pKi in experiment [13] was 7.92.

Turning to `COc1cc(/C=C\c2ccc(O)cc2)cc(OC)c1`, the INH in experiment [2] was 6.3 ×10⁴ L/mol/s.

As to `COc1cc(/C=C/c2ccc(O)c(O)c2)cc(OC)c1`, in experiment [2], the INH stood at 110 ×10⁴ L/mol/s.

On to `O=C(Oc1cc(O)cc(/C=C/c2ccc(O)cc2)c1)c1cc(O)c(O)c(O)c1`, for which the IC50 in [4] was 16 µg/mL (≈ 42.1 µM).

Consider `Oc1cc(O)cc(/C=C/c2cc(O)cc(O)c2)c1`, for which, in experiment [1], the inhibition was determined as 46.5%. Further, in experiment [11], the TIME was determined as 3.7 h.

Regarding `Oc1ccc(/C=C\c2cc(O)cc(O)c2)cc1` [CIS-RESVERATROL], the INH in experiment [2] came out at 7.4 ×10⁴ L/mol/s. The pEC50 in experiment [9] was 3.62.

For the compound `COc1cc(/C=C/c2cc(O)c(O)c(C(C)(C)C)c2)cc(OC)c1`, the INH in [2] was 240 ×10⁴ L/mol/s.

`Oc1ccc(/C=C/c2ccc(O)c(O)c2)cc1`: the TIME in [3] was 7.2 ×10³ s; in [7], 5.1 ×10³ s; in experiment [10] it was 1.75 h; in [12] it was 0.62 h. Besides, the INH in [8] was determined as 4.2 ×10⁵ L/mol/s.

As for `Oc1ccc(/C=C/c2ccccc2)cc1`, the TIME was found to be 2.1 ×10³ s in [3] and 1.7 ×10³ s in experiment [7]. The INH in experiment [5] stood at 1 ×10⁴ L/mol/s; in experiment [6] it was 1.2 ×10⁴ L/mol/s.

Regarding `COc1cc(/C=C\c2cc(C(C)(C)C)c(O)c(C(C)(C)C)c2)cc(OC)c1`, the INH in experiment [2] turned out to be 2.3 ×10⁴ L/mol/s.

In the case of `Oc1cc(/C=C/c2cc(O)c(O)c(O)c2)cc(O)c1O`, the IC50 in experiment [4] amounted to 0.9 µg/mL (≈ 3.26 µM).

For `O=C(/C=C/c1ccc(O)c(O)c1)Oc1cc(O)cc(/C=C/c2ccc(O)cc2)c1`, the IC50 in [4] was found to be 9.2 µg/mL (≈ 23.6 µM).

As to `Oc1ccc(/C=C/c2ccc(O)cc2)cc1`, the TIME in experiment [3] came to 3.2 ×10³ s; in experiment [7], 2.6 ×10³ s; in experiment [10] it was 1.28 h; in experiment [12], 0.308 h. Further, the values for the INH in [5], in experiment [6] and in [8] were 0.8 ×10⁴ L/mol/s, 1.4 ×10⁴ L/mol/s and 8.2 ×10⁵ L/mol/s, respectively.

For `Oc1cc(/C=C/c2cc(O)c(O)c(Br)c2)cc(O)c1O`, the IC50 in experiment [4] was 8.1 µg/mL (≈ 23.9 µM).

With `COc1cc(/C=C\c2ccc(O)c(OC)c2)cc(OC)c1`, the INH in [2] turned out to be 5.7 ×10⁴ L/mol/s.

For the compound `Clc1ccc(/C=C\c2cc(Cl)cc(Cl)c2)cc1`, the pKi in [13] is 7.92.

On to `Oc1ccc(/C=C/c2ccc(O)c(O)c2)cc1O`, for which the INH in experiment [8] was determined as 3.7 ×10⁵ L/mol/s. The TIME is 1.78 h in [10] and 0.85 h in experiment [12].

Turning to `Oc1cc(/C=C/c2ccccc2)cc(O)c1O`, the TIME in experiment [3] was 2.4 ×10³ s; in experiment [7], 2.9 ×10³ s. The INH in [5] turned out to be 1.3 ×10⁴ L/mol/s; in [6], 3.1 ×10⁴ L/mol/s.

Take `COc1cc(/C=C\c2ccc(O)c(O)c2)cc(OC)c1`: the INH in experiment [2] came to 76 ×10⁴ L/mol/s.

With `CCOc1ccc(/C=C\c2cc(OC)cc(OC)c2)cc1`, in experiment [13], the pKi is 7.92.

Take `COc1ccc(/C=C/c2cc(O)cc(O)c2)cc1` [RESVERATROL 4'-METHYL ETHER]: the pEC50 is 4.31 in experiment [14] and 3.18 in experiment [9].

For `Oc1cc(O)cc(/C=C/c2cc(O)c(O)c(O)c2)c1`, the inhibition in experiment [1] was found to be 92.9%. The TIME in [11] was 48.1 h.

As for `CCCCOc1ccc(/C=C\c2cc(OC)cc(OC)c2)cc1`, the pKi in experiment [13] is 7.92.

As for `Oc1ccc(/C=C/c2cc(O)c(O)c(O)c2)cc1O`, the IC50 in experiment [4] was found to be 3 µg/mL (≈ 11.5 µM).

Consider `Oc1cc(O)cc(/C=C/c2ccc(O)c(O)c2)c1`, for which the inhibition in experiment [1] was determined as 67.1%. Moreover, the TIME in [11] was found to be 60.3 h.

Consider `COc1cc(/C=C/c2ccc(O)cc2)cc(OC)c1` [PTEROSTILBENE], for which the figures for the pEC50 in experiment [14] and in experiment [9] were 4.52 and 3.45, respectively. Moreover, the INH in [2] was 13 ×10⁴ L/mol/s.

In the case of `Oc1ccc(/C=C/c2ccccc2)cc1O`, the TIME is 4.9 ×10³ s in experiment [3], 4.1 ×10³ s in experiment [7], 1.77 h in [10] and 0.65 h in experiment [12]. In addition, the INH worked out at 0.9 ×10⁴ L/mol/s in [5], 2.9 ×10⁴ L/mol/s in experiment [6] and 4.9 ×10⁵ L/mol/s in experiment [8].
